System: P. fluorescens strain that is susceptible to kanamycin
Experiment: Growth inhibition of P. fluorescens in 8% D2O, read from deuterated vs undeuterated membrane lipid ions by MALDI mass spectrometry
Format: cell-based, Pseudomonas fluorescens
Conditions: range of antibiotic concentrations, FIG. 2
Experimental: In FIG. 1 is shown eight MALDI mass spectra from about 680 to 730 m/z in negative ionization mode of membrane lipids extracted from a P. fluorescens strain that is susceptible to kanamycin. The aforementioned P. fluorescens strain was grown in seven environments containing Mueller-Hinton media and water containing 8% D2O, with each of the seven environments also having a concentration of kanamycin from 0 μg/mL to 200 μg/mL.
Extract samples using the method of embodiment 1b, as follows: skip optional step 2 of embodiment 1b; perform step 3 of embodiment 1b by drying the plate at 80° C. for about 5 min; perform step 4 of embodiment 1b by applying 1 μL of a solution of chloroform-methanol-water at a ratio by volume of 12:6:1, to which 10 mg/mL of beta-carboline has been added.
3. […]
In FIG. 1 can be seen multiple spectra for samples of a P. fluorescens strain that is susceptible to kanamycin, grown under different conditions, then extracted with a method of embodiment 1d and analyzed with a method of embodiment 2 using negative ionization mode. […]
In FIG. 2 can be seen a graph of the ratio of heavy/light LA ions from the spectra in FIG. 1, where light LA is measured as the intensity of the ion peak at 688.5 m/z and heavy LA is measured as the intensity of the ion peak at 692.5 m/z.

CC1(C)S[C@@H]2[C@H](NC(=O)C(C(=O)O)c3ccccc3)C(=O)N2[C@H]1C(=O)O (stereo partly shown) [carbenicillin]
relationship between heavy/light ratio and antibiotic concentration: lowest at the highest antibiotic concentrations

From patent US20220364139A1, “METHODS FOR DETERMINING GROWTH AND RESPONSE” (PATAIGIN, LLC, priority 2019, published 2022)
